Experimental data taken from PubChem BioAssay (NCI).
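The concentration for 50% growth inhibition is given as GI50. Definition used: TGI = concentration required for complete inhibition of growth.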

Legend:
Assay in all cases: DTP human tumour cell line panel, 384-well format
MDA-MB-468 breast = test system: MDA-MB-468 breast
ACHN renal = test system: ACHN renal
NCI-H322M lung = test system: NCI-H322M lung
NCI-H460 NSCLC = test system: NCI-H460 NSCLC
NCI-H226 lung = test system: NCI-H226 lung
HCT-15 colon = test system: HCT-15 colon
SF-268 CNS = test system: SF-268 CNS
MALME-3M melanoma = test system: MALME-3M melanoma
NCI-H23 lung = test system: NCI-H23 lung
OVCAR-3 ovarian = test system: OVCAR-3 ovarian
HOP-92 NSCLC = test system: HOP-92 NSCLC
BT-549 breast = test system: BT-549 breast
OVCAR-4 ovarian = test system: OVCAR-4 ovarian
HT29 colon = test system: HT29 colon
SK-MEL-28 melanoma = test system: SK-MEL-28 melanoma
A549 NSCLC = test system: A549 NSCLC
DU-145 prostate = test system: DU-145 prostate
SK-MEL-2 melanoma = test system: SK-MEL-2 melanoma
EKVX NSCLC = test system: EKVX NSCLC
MCF7 breast = test system: MCF7 breast
MDA-MB-435 melanoma = test system: MDA-MB-435 melanoma
OVCAR-5 ovarian = test system: OVCAR-5 ovarian
HL-60(TB) leukemia = test system: HL-60(TB) leukemia
CAKI-1 renal = test system: CAKI-1 renal
OVCAR-8 ovarian = test system: OVCAR-8 ovarian
A498 renal = test system: A498 renal
TK-10 renal = test system: TK-10 renal
UO-31 renal = test system: UO-31 renal
HCT-116 colon = test system: HCT-116 colon
IGROV1 ovarian = test system: IGROV1 ovarian
SW-620 colon = test system: SW-620 colon
M14 melanoma = test system: M14 melanoma
UACC-257 melanoma = test system: UACC-257 melanoma
MOLT-4 leukemia = test system: MOLT-4 leukemia
SNB-75 CNS = test system: SNB-75 CNS
HOP-62 NSCLC = test system: HOP-62 NSCLC
NCI-H522 lung = test system: NCI-H522 lung
RXF 393 renal = test system: RXF 393 renal
PC-3 prostate = test system: PC-3 prostate
SR leukemia = test system: SR leukemia
U251 glioblastoma = test system: U251 glioblastoma
T-47D breast = test system: T-47D breast
HS 578T breast = test system: HS 578T breast
MDA-MB-231 breast = test system: MDA-MB-231 breast
SNB-19 CNS = test system: SNB-19 CNS
KM12 colon = test system: KM12 colon
UACC-62 melanoma = test system: UACC-62 melanoma
K-562 leukemia = test system: K-562 leukemia
SK-MEL-5 melanoma = test system: SK-MEL-5 melanoma
SF-539 CNS = test system: SF-539 CNS
SN12C renal = test system: SN12C renal
SK-OV-3 ovarian = test system: SK-OV-3 ovarian
786-0 renal = test system: 786-0 renal
SF-295 CNS = test system: SF-295 CNS
COLO 205 colon = test system: COLO 205 colon

Cn1cc(-c2ccc3c(c2)ncn3-c2cc(NS(=O)(=O)C3CC3)cc(-c3ccc(F)cc3F)c2)cn1 gave a GI50 (MDA-MB-468 breast) of 1.71 µM, a TGI (MDA-MB-468 breast) of 6.44 µM and a GI50 (ACHN renal) of 2.5 µM. It also gave a TGI (ACHN renal) of 13.2 µM, a GI50 (NCI-H322M lung) of 3.3 µM and a TGI (NCI-H322M lung) of 20.7 µM. The GI50 (NCI-H460 NSCLC) was 2.48 µM, the TGI (NCI-H460 NSCLC) was 13.7 µM and the GI50 (NCI-H226 lung) was 0.344 µM. The TGI (NCI-H226 lung) was 14.3 µM, the GI50 (HCT-15 colon) was 4.25 µM and the TGI (HCT-15 colon) was 24 µM. It also gave a GI50 (SF-268 CNS) of 3.4 µM, a TGI (SF-268 CNS) of 61.3 µM and a GI50 (MALME-3M melanoma) of 4.55 µM. It also gave a TGI (MALME-3M melanoma) of 15.2 µM, a GI50 (NCI-H23 lung) of 2.51 µM and a TGI (NCI-H23 lung) of 14.4 µM. The GI50 (OVCAR-3 ovarian) was 3.15 µM, the TGI (OVCAR-3 ovarian) was 11.4 µM and the GI50 (HOP-92 NSCLC) was 2.03 µM. For the same molecule, the TGI (HOP-92 NSCLC) was 12.4 µM, the GI50 (BT-549 breast) was 1.03 µM and the TGI (BT-549 breast) was 9.21 µM. It also gave a GI50 (OVCAR-4 ovarian) of 2.26 µM, a TGI (OVCAR-4 ovarian) of 37.6 µM and a GI50 (HT29 colon) of 3.01 µM. For the same molecule, the TGI (HT29 colon) was 10.2 µM, the GI50 (SK-MEL-28 melanoma) was 4.04 µM and the TGI (SK-MEL-28 melanoma) was 19.5 µM. The GI50 (A549 NSCLC) was 3.42 µM, the TGI (A549 NSCLC) was > 100 µM and the GI50 (DU-145 prostate) was 4.9 µM. The TGI (DU-145 prostate) was 40.2 µM, the GI50 (SK-MEL-2 melanoma) was 2.78 µM and the TGI (SK-MEL-2 melanoma) was 7.22 µM. The GI50 (EKVX NSCLC) was 2.82 µM, the TGI (EKVX NSCLC) was 13.5 µM and the GI50 (MCF7 breast) was 2.07 µM. The TGI (MCF7 breast) was 12.8 µM, the GI50 (MDA-MB-435 melanoma) was 4.37 µM and the TGI (MDA-MB-435 melanoma) was 72.8 µM. The GI50 (OVCAR-5 ovarian) was 4.31 µM, the TGI (OVCAR-5 ovarian) was 79.4 µM and the GI50 (HL-60(TB) leukemia) was 3.2 µM. The TGI (HL-60(TB) leukemia) was 6.8 µM, the GI50 (CAKI-1 renal) was 2.16 µM and the TGI (CAKI-1 renal) was > 100 µM. For the same molecule, the GI50 (OVCAR-8 ovarian) was 4.79 µM, the TGI (OVCAR-8 ovarian) was 79.6 µM and the GI50 (A498 renal) was 2.36 µM. It also gave a TGI (A498 renal) of 6.03 µM, a GI50 (TK-10 renal) of 2.87 µM and a TGI (TK-10 renal) of 24.4 µM. It also gave a GI50 (UO-31 renal) of 1.73 µM, a TGI (UO-31 renal) of 7.66 µM and a GI50 (HCT-116 colon) of 2.79 µM. For the same molecule, the TGI (HCT-116 colon) was 12.3 µM, the GI50 (IGROV1 ovarian) was 2.02 µM and the TGI (IGROV1 ovarian) was 6.92 µM. The GI50 (SW-620 colon) was 18 µM, the TGI (SW-620 colon) was > 100 µM and the GI50 (M14 melanoma) was 4.6 µM. It also gave a TGI (M14 melanoma) of 47.3 µM, a GI50 (UACC-257 melanoma) of 3.02 µM and a TGI (UACC-257 melanoma) of 10.3 µM. It also gave a GI50 (MOLT-4 leukemia) of 1.62 µM, a TGI (MOLT-4 leukemia) of 3.09 µM and a GI50 (SNB-75 CNS) of 0.29 µM. For the same molecule, the TGI (SNB-75 CNS) was 3.53 µM, the GI50 (HOP-62 NSCLC) was 2.39 µM and the TGI (HOP-62 NSCLC) was 10.8 µM. It also gave a GI50 (NCI-H522 lung) of 1.8 µM, a TGI (NCI-H522 lung) of 6.87 µM and a GI50 (RXF 393 renal) of 0.183 µM. It also gave a TGI (RXF 393 renal) of 2.06 µM, a GI50 (PC-3 prostate) of 2.92 µM and a TGI (PC-3 prostate) of 9.54 µM. For the same molecule, the GI50 (SR leukemia) was 1.89 µM, the TGI (SR leukemia) was 3.7 µM and the GI50 (U251 glioblastoma) was 2.15 µM. The TGI (U251 glioblastoma) was 12.3 µM, the GI50 (T-47D breast) was 2.63 µM and the TGI (T-47D breast) was 13.7 µM. It also gave a GI50 (HS 578T breast) of 0.575 µM, a TGI (HS 578T breast) of 2.44 µM and a GI50 (MDA-MB-231 breast) of 3.4 µM. For the same molecule, the TGI (MDA-MB-231 breast) was > 100 µM, the GI50 (SNB-19 CNS) was 4.05 µM and the TGI (SNB-19 CNS) was > 100 µM. The GI50 (KM12 colon) was 3.4 µM, the TGI (KM12 colon) was 13.2 µM and the GI50 (UACC-62 melanoma) was 6.3 µM. The TGI (UACC-62 melanoma) was 18.9 µM, the GI50 (K-562 leukemia) was 1.81 µM and the TGI (K-562 leukemia) was 3.65 µM. The GI50 (SK-MEL-5 melanoma) was 3.28 µM, the TGI (SK-MEL-5 melanoma) was 15.7 µM and the GI50 (SF-539 CNS) was 0.305 µM. For the same molecule, the TGI (SF-539 CNS) was 2.05 µM, the GI50 (SN12C renal) was 2.51 µM and the TGI (SN12C renal) was > 100 µM. The GI50 (SK-OV-3 ovarian) was 2.42 µM, the TGI (SK-OV-3 ovarian) was 10.8 µM and the GI50 ([…]-0 renal) was 1.99 µM. It also gave a TGI (786-0 renal) of 4.95 µM, a GI50 (SF-295 CNS) of 1.69 µM and a TGI (SF-295 CNS) of 4.14 µM. The GI50 (COLO 205 colon) was 11.7 µM and the TGI (COLO 205 colon) was 93.6 µM.
